Assay [1] concerns myocardial infarction by left coronary artery occlusion. Briefly: Model of myocardial infarction: left coronary ligation (Example 5). Type of assay: in vivo, rat. The settings on record: dose of 0.67 mg/kg. The protocol:
Male Sprague-Dawley weighing 250-320 g are allowed free access to water and commercial rodent diet under standard laboratory conditions. Room temperature is maintained at 20-23° C. and room illumination is on a 12/12-hour light/dark cycle. Animals are acclimatized to the laboratory environment 5 to 7 days prior to the study and are fasted overnight prior to surgery.
Rats are anaesthetized with Urethane (1.2-1.5 gm/kg). Core body temperature is maintained at 37° C. by using a heating blanket. The surgical area is shaved, and a ventral midline incision is made to expose the trachea and jugular area. A catheter (PE50) is placed in the jugular for administration of compound and maintenance anesthesia. The trachea is incised and a 14-16-gauge modified intravenous catheter is inserted and tied in place as an endotracheal tube. The animal is placed in right lateral recumbency and initially placed on a Harvard ventilator with a tidal volume of 5-10 ml/kg. 100% O2 is delivered to the animals by the ventilator. ECG electrodes are placed to record a standard Lead II ECG. The surgical site is cleaned with alcohol swab, and a skin incision is made over rib cage over the 4th-5th intercostal space. […] The ECG is monitored for S-T changes indicative of ischemia. […] The ECG is monitored for the first 10 minutes of reperfusion. […]

Assay [2] relates to transient focal cerebral ischemia induced by Middle Cerebral Artery Occlusion (MCAO). Briefly: Animal cerebral infarct assay: two-hour Middle Cerebral Artery Occlusion (MCAO) with reperfusion. As to conditions: intraventricular (i.c.v.), 0.0067 mg/kg to 0.67 mg/kg. Type of assay: in vivo, rat. An excerpt:
This assay is used to assess the efficacy of the test agents in protecting the brain against necrosis following cerebral ischemia induced in rats. Middle Cerebral Artery Occlusion (MCAO) is a widely used technique to induce transient focal cerebral ischemia in animal models. […] Furthermore, this model accurately represents the involvement of middle cerebral artery (MCA), the most affected vessel in human stroke, and also allows reperfusion as it happens in humans. MCAO by a two-hour occlusion is used to produce the maximum size of cortical infarction without increased mortality at twenty-four hours. Male Wistar rats (Hadan, Ind.) weighing 300-350 g were allowed free access to water and commercial rodent diet under standard laboratory conditions. The room temperature was maintained at 20-23° C. and room illumination was on a 12/12-hour light/dark cycle. The rats were acclimatized to the laboratory environment 5 to 7 days prior to the study. Before surgery, the animals were fasted overnight, but had free access to water. The rats were anesthetized with 3.0% isoflurane (Aerrane, Front Dodge, Iowa) in […] and the animal's neck was shaved and sterilized before the operation. The animals were subjected to two hours MCAO using a modified intraluminal filament technique. A midline incision on the ventral part of the neck was made to expose external and internal carotid arteries. The right external and common carotid arteries were ligated by a suture (silk 5/0, Carlisle Laboratories, Farmers Branch, Tex.) and the right internal artery was temporarily ligated by a microvascular clip (Fine Science Tool Inc., Foster City, Calif.). A small incision was made in the common carotid artery and a nylon filament, its tip rounded by heating, prepared from a fishing line (Stren Fishing Lines, Wilmington, Del.) was inserted from the right common carotid artery. The filament was advanced into the internal carotid artery 18-20 mm from the point of bifurcation of internal and external arteries and a suture was tightly ligated around the filament. Two hours post occlusion, the animals were re-anesthetized to allow reperfusion for the remaining of the experiment by removal of the filament. The anesthetized animal were placed on a stereotaxic apparatus (Harvard Apparatus, S. Natick, Mass.). Anesthesia was maintained by inhalation of 3.0% isoflurane in […] throughout the entire procedure. The scalp was shaved and sterilized prior to surgery. A midline sagittal incision about 3 cm long was made slightly behind the eyes to expose the skull. The skull was scraped with a rounded end spatula to remove periosteal connective tissue. A bur hole was placed 1.5 mm lateral, 1 mm posterior to the left of the bregma to mark the left lateral ventricle. A brain infusion cannula (ALZET CO. Palo Alto, Calif.) was inserted 4 mm deep into the hole. The desired depth was adjusted by attaching spacers to the cannula. The cannula was attached to a 4-cm silastic catheter (Helix Medical Inc.) fixed in place with dental cement (Ketac-cement, Norristown, Pa.). The catheter was either attached to a primed osmotic pump placed subcutaneously between the shoulder blades for permanent infusion or to a syringe for a short infusion. Anesthesia was maintained by inhalation of 3.0% isoflurane in […] throughout the entire procedure. The exterior site of the right femoral vein was shaved and sterilized prior to surgery. A 3 cm incision was made in the right groin region and the femoral vein was isolated. A small incision was made on the femoral vein temporarily ligated with a microvascular clip to introduce and advance a polyethylene (PE-50) catheter (Becton. Dickinson and Co., Sparks, Md.). The catheter was secured in place with suture (silk 5/0, Carlisle Laboratories, Farmers Branch, Tex.). The other end of the catheter was attached to a syringe filled with the heparinized saline for the bolus injection. […]

As to bromo-quercetin, in assay [1], the infarct size result is “reduce infarct size”. Also, the “reductions of infarct volumes” value in assay [2] is “greater than 50%”.

The values above are taken from patent publication US20020132845A1, “Compositions and methods for the prevention and treatment of tissue ischemia” (priority 2000, published 2002).
